Consider seven compounds from patent US5334588A, “Composition for inhibiting transmission of hepatitis B virus” (priority 1991, dated 1994).

Where two headings read alike, the source gives them in different places.

Series [1] has as its system Rauscher Leukemia Virus (RLV). Put plainly: Infectivity of Rauscher Leukemia Virus (RVB3) in mice, spleen weight (Table 4). It is filed as in vivo, Balb/CICR mice. Particulars: 2% drug in coating solution, 20 days; for Weight of Spleen: average of 6 animals, infected glove control 1,627; for Weight Increase from Control: infected glove control 1,541. On the procedure:
In vivo tests were performed using Rauscher Leukemia Virus (RLV), a recognized retrovirus model (see, e.g., Nature 323, 467-469 (1986); Rupecht et al., Proc. Nat'l. Acad. Sci. USA 82, 7733-7737 (1985)) which is used by the FDA in testing drugs for use in treating AIDS. RLV was introduced into Balb/CICR mice in which it infects the spleen. The level of virus infectivity was quantified by determining the weight increase of the mouse spleen after 20 days from infection.
Each treatment was prepared by incubating 1.5 ml Dulbecco's Phosphate Buffered Saline (PBS) for 10 minutes at 37° C. in the finger tip of a latex glove. After incubation, as much as possible of the material was removed from the glove. 0.4 ml of PBS was then introduced into the glove and this was the sample which was introduced into the animals. […] Thus two of the groups only had four animals each that were considered.
[…] Each treatment was prepared by incubating 0.4 ml sterile PBS containing RVB3 (a strain of RLV) for 10 minutes in a glove tip which had previously had one of drugs or straight PBS incubated in it as described above. Three additional controls, a PBS containing glove with no virus, a virus sample not incubated in a glove, and a PBS sample not incubated in a glove were also run.

The test system of series [2] is ARV-2 strain of AIDS virus. Put plainly: Infectivity of ARV-2 strain of AIDS virus in H9 cells (Table 2). It is filed as cell-based. Particulars: for % Infection: 15 min preincubation, 24 h. As for the experimental part: A stock solution of virus containing 3 to 5×10^4 infectious virus particles/ml was preincubated with the various drugs as indicated in Table 2 for 15 minutes. The virus sample was then diluted 4-fold in order to reduce the concentrations of the drugs below levels toxic to H9 cells (see Example 3 below) and mixed with 250,000 H9 cells in a total volume of 1 ml. After 24 hours, the cells were assayed to determine the percentage of the culture expressing viral antigen. This time interval was selected as it allows for only a single round of viral infection to have occurred such that the number of cells infected was a direct reflection of the number of infectious virions present in the original sample.

A further series has as its system H9 cells. The following applies: for % Viab (live cells/live & dead) / Viable Cells/ml: 10 min exposure; for % Viab (live cells/live & dead): after 24 h; for Viable Cells/ml: viability after 24 h. As for the experimental part: The toxicity of the various agents used in the antiviral compositions of the invention to human T4 -lymphocytes (H9 cells and marophages which are the carriers of the AIDS virus) may be relevant to the effectiveness of a drug. This is because killing these cells when present in semen or vaginal fluids may lead to release of virus making it more susceptible to the effects of the drug. With this in mind, the effect of short exposure (10 minutes) of AgSD and other drugs on H9 cells was tested by treating a suspension of H9 cells (1.6×10^6 /ml in HBSS) with […] of each drug or drug combination. After incubating for 10 minutes, the cells were washed twice in thirty volumes of HBSS; resuspended in RPMI 10% FCS+NaPyruvate and plated into 24 well plates at 4×10^5 cells/mi. Cell viability was determined after 24 hours and is reported as numbers of viable cells per ml and viable percentage (live cells/live cells+dead cells) in Table 3A.

The next series relates to macrophages. Put plainly: Rate of killing of macrophage by drugs, trypan-blue (Table 3B). It is filed as cell-based, mouse. The following applies: 100 μg; 20 min incubation; control 36% kill. On the procedure:
In the experiment, peritonial normal mouse macrophages were enriched by attaching to petri dishes and adjusted to a cell concentration of 5 to 10×10^6 /ml. 0.1 ml aliquots of this suspension were plated in microtiter plates and 10μ and 5μ of each of four samples was added. The control plate received PBS only. After 20 minutes of incubation in a […], the cells were tested for viability using tryphan-blue dye.

Series [3] deals with Staph. aureus. Put plainly: Antibacterial efficacy of coated I.V. catheters, Bioassay A (Table 8). It is filed as cell-based. The following applies: Polyurethane I.V. catheter, silicone matrix coating; 10^4 CFU Staph. aureus. The source says:
The coatings were applied by dipping and then drying.
Staph. aureus is used to challenge the I.V. catheter.

Another series deals with HIV-I. Particulars: 10 minutes exposure; HIBICLENS or HIBISTAT dilutions; C3-44 cells; cited from earlier work.
A further series has as its system HSV. Put plainly: Toxicity of drugs for HSV, titer on vero cells (Table 7A). It is filed as cell-based. The following applies: 200 μl of 500 μg/ml stock added to 1 ml virus, 20 min at R.T.; for Titer: read after 48 hours. On the procedure:
One ml HSV at 3 × 10^6/ml was incubated with 200 μliters of
drugs each 500 μg/ml stock solution. After 20 minutes at
R.T., the virus was titered on monolayers of vero cells,
incubatwd for 2 hours, then overlayed with methyl cellulose.
Virus titers were read after 48 hours. No drug toxicity* was […]

Series [4] relates to Candida albicans. Put plainly: Rate of killing of Candida albicans on short exposure (Table 5A). It is filed as cell-based. The following applies: 10 minute incubation, control >50,000. As for the experimental part:
3 ml of Saboraud broth containing 10^5 organism of Candida albicans
were incubated with the above drug. Aliquots were removed at 5 and 10
minute and were subcultured.

The next series concerns Gonococcus. Put plainly: Killing of Gonococcus (Table 6). It is filed as cell-based. The following applies: for Colony Counts in Culture: control >50,000. On the procedure: Drugs were suspended in 5 ml of cultures containing […] of
gonoccccus and incubated. Aliquots were removed at 5 and 10 minute
intervals and subcultured for colony counts.

In series [5] the test system is Candida albicans. Put plainly: Antifungal efficacy of drug coated gloves against Candida albicans (Table 5B). It is filed as cell-based. Particulars: treated glove. As for the experimental part: Treated glove fingers were draped over the top of culture
tubes with the treated side foring the inside of the cup
shape. Then 3.0 ml of TSB contining 10^3 organisms of Candida
albicans was dispensed in each finger and all placed in the
water bath shaker at 37° C. Samples were removed at 15
minutes, 1 hour, 2 hours, and 4 hours. They were diluted 1-
10 and plated on blood agar in 2.0 ml amounts.

For series [6], the system named is Staph. aureus. Put plainly: Antibacterial efficacy of drug coated gloves against Staph. aureus (Table 9). It is filed as cell-based. Particulars: 1% in coating solution. On the procedure: The fingers of latex gloves were washed and dried. They were then sprayed with a fine mist spray of a coating solution to provide a uniform coating of solution on the glove surface, sufficient to provide complete wetting thereof without runoff. The coating solutions were prepared by dissolving 1% Silicate®Medical Adhesive Type A and 1% of the silicone MDX4-4159 in ethyl acetate, followed by dissolving and dispersing the chlorhexidine acetate and silver sulfadiazine, respectively, therein. The coating was air dried for 24 hours and the gloves tested using the following test:
Treated glove fingers were draped over the tops of culture tubes with the treated side with sprayed on coating forming the inside of the cup shape. Then 3.0 ml of TSB containing 10^4 colony forming units of Staph. aureus was dispensed in each finger and all placed in a water bath shaker at 37° C. Samples were removed at 15 minutes, 1 hour, 2 hours, and 4 hours, diluted 1-10, and the solution plated on blood agar in 2.0 ml amounts.

The % Inhibition is the percentage by which the read-out fell short of the control. Higher therefore signals a response far below the control.

On to `CC(=O)O[C@H]1C[C@@]2(C)[C@@H](C[C@@H](O)[C@H]3[C@@]4(C)CC[C@@H](O)[C@@H](C)[C@@H]4CC[C@@]32C)/C1=C(\CCC=C(C)C)C(=O)O` [Fusidic acid], for which, in series [1], the “Weight of Spleen” value stood at 107 mg and the “Weight Increase from Control” value is recorded as 21 mg.

`[H]/N=C(\N/C(=N/[H])NCCCCCCNC(=N)NC(=N)Nc1ccc(Cl)cc1)Nc1ccc(Cl)cc1` [CHA, chlorhexidine acetate]: in series [2] (H9, 24 h, drug during incubation 10 μg/ml, final 2.5 μg/ml, read-out: % Infection v. Control), the % infection versus control at 2.5 µg/mL was determined as 108%. The “% Infection” value in [2] (drug during incubation 10 μg/ml, final 2.5 μg/ml) turned out to be 3.35%. In addition, the “condition of cells” value in the series on H9 cells was “Cells in terrible condition”. Besides, the figures for the “% Viab (live cells/live & dead)” value in the series on H9 cells (50 (ml/ml as printed in text)) and in the series with H9 cells (100 (ml/ml as printed in text)) were 73% and 20%, respectively. For the same compound, the “% Kill” value in the series with macrophages is on record as 100%. Also, the “Days of Activity” value in the series with Staph. aureus [3] came to 2 days.

Regarding `N=C(NCCCCCCNC(=N)NC(=N)Nc1ccc(Cl)cc1)NC(=N)Nc1ccc(Cl)cc1.O=C(O)[C@H](O)[C@@H](O)[C@H](O)[C@H](O)CO.O=C(O)[C@H](O)[C@@H](O)[C@H](O)[C@H](O)CO` [chlorohexidine gluconate], the “concentration not effective to prevent HIV-I infection” value with HIV-I was no more than 0.01%.

As for benzalkonium chloride, in the series on HSV, the “% Inhibition” value came to 98% and the Titer is 5.2 × 10^4.

`C[C@H](CCC(=O)O)[C@H]1CC[C@H]2[C@@H]3CC[C@@H]4C[C@H](O)CC[C@]4(C)[C@H]3C[C@H](O)[C@]12C` [NaDC, sodium deoxycholate]: in series [2] (H9, 24 h, read-out: % Infection v. Control), the % infection versus control at 10 µg/mL is 108%. Besides, the “% Infection” value in [2] (drug during incubation 40 μg/ml, final 10.0 μg/ml) was 3.35%. Besides, the “% Viab (live cells/live & dead)” value in the series with H9 cells (50 (ml/ml as printed in text)) is given as 73%; with H9 cells (100 (ml/ml as printed in text)), 44%. Moreover, the “Viable Cells/ml” value in the series with H9 cells (50 (ml/ml as printed in text)) is 1.2 × 10^6 Cells/ml; in the series with H9 cells (100 (ml/ml as printed in text)), 2.0 × 10^6 Cells/ml. In addition, the “Weight of Spleen” value in [1] was 109 mg. The “Weight Increase from Control” value in series [1] is given as 23 mg. Besides, the “Colony Counts in Culture” value is on record as 8,000 in the series on Candida albicans [4] (concentration 1,000 (unit not given)); 12,000 in the series on Gonococcus (1,000 μg/ml, 5 Minutes); 4,000 in the series on Gonococcus (1,000 μg/ml, 10 Minutes). Also, the “% Inhibition” value in the series on HSV worked out at 0%. In the series on HSV, the Titer is listed as 3.2 × 10^6.

As for `[H]/N=C(\N/C(=N/[H])NCCCCCCNC(=N)NC(=N)Nc1ccc(Cl)cc1)Nc1ccc(Cl)cc1` [Chlorhexidine, chlorhexidine], the “viral infectivity” value in series [2] (10 μg/ml) is “did not itself reduce viral infectivity”. Moreover, in series [2] (low concentrations, combination compared with AgSD alone), the “effectiveness for reducing infectivity of AIDS virus” value is given as “no effect on infectivity of AIDS virus”. In addition, the “Weight of Spleen” value in series [1] turned out to be 234 mg. In addition, in [1], the “Weight Increase from Control” value is listed as 148 mg. Moreover, the “Colony Counts in Culture” value is listed as 30 in the series with Candida albicans [4] (concentration 100 (unit not given)); 0 with Candida albicans [5] (1 Hour, control 2,000); 0 in the series with Candida albicans [5] (2 Hours, control 4,000); 0 in the series with Candida albicans [5] (4 Hours, control 6,000); 75 in the series with Candida albicans [5] (15 Minutes, control 1,400); 2,000 in the series on Gonococcus (100 μg/ml, 5 Minutes). Further, the “Colony Counts in Culture” value in the series on Gonococcus (100 μg/ml, 10 Minutes) is reported as 10; in the series on Staph. aureus [6] (15 min., control 12,000), 100; in the series on Staph. aureus [6] (1 hour, control 15,000), 0; with Staph. aureus [6] (2 hours, control 20,000), 0; with Staph. aureus [6] (4 hours, control 50,000), 0. Moreover, in the series on HSV, the “% Inhibition” value is recorded as 0%. Also, the Titer in the series on HSV is listed as 2.7 × 10^6.

In the case of nonoxynol, the “Colony Counts in Culture” value is given as > 50,000 in the series on Candida albicans [4] (0.2%); 40 with Gonococcus (0.1%, 5 Minutes); 70 with Gonococcus (0.1%, 10 Minutes). Also, the “effectiveness against gonococcus” value in the series with Gonococcus (general statement) is “effective against gonococcus”.
